Measured values as given in paper PMC7529893, “Structural basis for substrate recognition and chemical inhibition of oncogenic MAGE ubiquitin ligases” (Nature Communications, 2020).

Target: T1, MAGE-A11:PCF11 interaction (GST-MAGE-A11 and FAM-PCF11_4) (Homo sapiens, UniProt P43364)
T1 construct: GST-MAGE-A11 MHD (human MAGE-A11 MHD amino acid 218-429); made in house; host or cells: E. coli BL21(DE3)
T1 sequence (P43364 218-429): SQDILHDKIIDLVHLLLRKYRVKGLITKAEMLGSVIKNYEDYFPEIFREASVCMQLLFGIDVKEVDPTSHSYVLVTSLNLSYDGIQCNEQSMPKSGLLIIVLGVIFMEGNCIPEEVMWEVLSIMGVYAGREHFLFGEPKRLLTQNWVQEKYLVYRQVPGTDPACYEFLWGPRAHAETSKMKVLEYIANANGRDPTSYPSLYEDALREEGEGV
Assay: TR-FRET primary / single point screen at 15 µM
Type: binding
Summary of the method: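 TR-FRET 520/490 nm emission ratio was read after 90 min at room temperature. Wells held 5 nM GST-MAGE-A11, 5 nM Tb-anti-GST, 200 nM FAM-PCF11_4 and 15 µM compound in Tris pH 7.5 buffer with MgCl2, BSA and DTT. %Inhibition was scaled to DMSO and minus-MAGE-A11 controls.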

[1] = single point TR-FRET screening of quinoline compounds against MAGE-A11:PCF11, 15 µM
[2] = single point TR-FRET screening of 797 quinoline compounds against MAGE-A11:PCF11

Row | percent inhibition (TR-FRET) [1] | percent inhibition (TR-FRET) [2] | Compound
1 | 0.5217 | – | Clc1ccc2c(NCCCN(Cc3ccccc3)Cc3ccco3)ccnc2c1 [SJ000312668]
2 | – | 22.7145 | CC(Nc1c2ccccc2nc2ccccc12)C(=O)NC(CC(N)=O)C(=O)O (stereo not shown) [SJ000016433]
3 | 7.824 | – | COc1ccc(-c2ccc3c(NCCCNCc4ccco4)ccnc3c2)cc1 [SJ000311294]
4 | – | 4.534 | CCOc1ccc2ncc(S(=O)(=O)c3ccccc3)c(N3CCN(CC)CC3)c2c1 [SJ000083959]
5 | 12.0487 | – | CCCN(CCCNc1ccnc2cc(Cl)ccc12)Cc1[nH]cnc1C [SJ000523010]
6 | 37.651 | – | Clc1ccc(Oc2ccc3c(NCCCNCc4ccco4)ccnc3c2)cc1 [SJ000311226]
7 | – | 3.503 | COC(=O)CN1CCN(c2cc(C)nc3ccccc23)C(C)C1=O (stereo not shown) [SJ000516812]
8 | 10.8349 | – | Cc1ccc(CNCCCNc2ccnc3cc(Cl)ccc23)s1 [SJ000311190]
9 | 15.1623 | – | CCCN(CCCNc1ccnc2cc(Cl)ccc12)Cc1ccc(OC)c(F)c1 [SJ000522994]
10 | 0.4026 | – | Clc1ccc2c(NCCCNCC3CCOC3)ccnc2c1 (stereo not shown) [SJ000521038]
11 | – | -2.791 | CCc1ccc2ncc(S(=O)(=O)c3ccc(OC)cc3)c(N3CCN(c4ccccc4)CC3)c2c1 [SJ000117056]
12 | – | -408.139 | COc1ccc2nc3cc(Cl)ccc3c(NCCCNCc3cccc(C(F)(F)F)c3)c2c1 [SJ000520990]
13 | -81.2358 | – | CCCN(CCCNc1c2ccc(Cl)cc2nc2ccc(OC)cc12)Cc1cc(OC)ccc1F [SJ000522965]
14 | – | -53.4343 | COc1ccc(-c2csc(N3CCN(c4cc(C)nc5ccccc45)CC3)n2)cc1OC [SJ000114009]
15 | – | 41.9261 | Clc1ccc2c(NCCCCN(Cc3ccccc3)CC3CCCCC3)ccnc2c1 [SJ000361194]
16 | – | -321.32 | COc1ccc2nc3cc(Cl)ccc3c(NCCCNCc3sccc3C)c2c1 [SJ000361094]
17 | – | 30.6494 | Oc1c(F)cc(F)cc1CN(CCCCNc1ccnc2cc(Cl)ccc12)Cc1ccccc1 [SJ000357506]
18 | 10.0613 | – | CCCN(CCCNc1ccnc2cc(Cl)ccc12)Cc1cnn(C)c1 [SJ000523009]
19 | 11.4525 | – | CCCN(CCCNc1ccnc2cc(Cl)ccc12)CC(C)C [SJ000357568]
20 | – | 11.85 | O=C(CN1CCN(C(c2ccccc2)c2ccccc2)CC1)Nc1c2c(nc3ccccc13)CCC2 [SJ000111684]
21 | – | -1.072 | Cc1cc(NC(=O)CN2CCN(C(=O)c3ccco3)CC2)c2ccccc2n1 [SJ000111679]
22 | – | -1.333 | CCOC(=O)c1cnc2c(C)c(Cl)ccc2c1NCCN(C)C [SJ000037393]
23 | -3.851 | – | Clc1ccc2c(NCCCN(Cc3ccccc3)Cc3ccccn3)ccnc2c1 [SJ000312678]
24 | -20.4102 | – | CCCN(CCCNc1ccnc2cc(C(F)(F)F)ccc12)Cc1cc2ccccc2o1 [SJ000520479]

Row | percent inhibition (TR-FRET) [1] | percent inhibition (TR-FRET) [2] | Compound
25 | – | -4.712 | CCc1ccc2ncc(S(=O)(=O)c3ccc(C)c(C)c3)c(N3CCN(CC)CC3)c2c1 [SJ000247334]
26 | 17.7459 | – | CCCN(CCCNc1ccnc2cc(Cl)ccc12)Cc1c(Cl)ccc(Cl)c1Cl [SJ000523046]
27 | 31.7696 | – | CCCN(CCCNc1ccnc2cc(C(F)(F)F)ccc12)Cc1ccc(CC)cc1 [SJ000521009]
28 | – | -3.938 | CCOc1ccc2ncc(S(=O)(=O)c3ccccc3)c(N3CCN(C)CC3)c2c1 [SJ000083948]
29 | 12.1149 | – | CCCN(CCCNc1ccnc2cc(Cl)ccc12)CCC(C)(C)C [SJ000357570]
30 | – | -10.8066 | CCOc1ccc(C(=O)c2cnc3ccc(C)cc3c2N2CCN(CC)CC2)cc1 [SJ000247339]
31 | 20.217 | – | Cc1ccc(C)c(CN(CCCNc2ccnc3cc(Cl)ccc23)Cc2ccccc2)c1 [SJ000361187]
32 | – | -129.124 | CCCN(CCCNc1c2ccc(Cl)cc2nc2ccc(OC)cc12)Cc1ccc2ccccc2c1 [SJ000520953]
33 | 19.2187 | – | CCCN(CCCNc1ccnc2cc(C(F)(F)F)ccc12)Cc1ccccc1F [SJ000361274]
34 | 9.001 | – | Clc1ccc2c(NCCCN(Cc3ccccc3)Cc3ccc4c(c3)OCO4)ccnc2c1 [SJ000522719]
35 | – | 9.598 | O=C(O)CCCNC(=O)CNc1c2ccccc2nc2ccccc12 [SJ000016432]
36 | – | -159.863 | CCCN(CCCNc1c2ccc(Cl)cc2nc2ccc(OC)cc12)Cc1nccn1C [SJ000522973]
37 | 15.6779 | – | CCCN(CCCNc1ccnc2cc(C(F)(F)F)ccc12)Cc1cnn(C)c1 [SJ000575182]
38 | – | 29.9089 | CCc1ccc(CN(CCCCNc2ccnc3cc(Cl)ccc23)Cc2ccccc2)cc1 [SJ000520443]
39 | – | 10.503 | COc1cccc(F)c1CN1CCC(Nc2ccnc3cc(Cl)ccc23)CC1 [SJ000357498]
40 | 10.1938 | – | Cn1ccnc1CNCCCNc1ccnc2cc(C(F)(F)F)ccc12 [SJ000521068]
41 | – | 3.702 | CCN(CCO)CCCC(C)Nc1ccnc2cc(Cl)ccc12 (stereo not shown) [SJ000286026]
42 | – | 11.7175 | COc1cccc(CN(CCCCNc2ccnc3cc(Cl)ccc23)Cc2ccccc2)c1 [SJ000361210]
43 | – | -2.791 | CCOC(=O)c1cnc2ccc(OC)cc2c1N1CCN(C)CC1 [SJ000279507]
44 | – | -202.643 | CCCN(CCCNc1c2ccc(Cl)cc2nc2ccc(OC)cc12)Cc1ccco1 [SJ000520935]
45 | – | -299.405 | COc1ccc2nc3cc(Cl)ccc3c(NCCCNCc3ccoc3)c2c1 [SJ000520916]
46 | 14.7648 | – | CN(C)c1ccc(CN(CCCNc2ccnc3cc(Cl)ccc23)Cc2ccccc2)cc1 [SJ000522741]
47 | 15.361 | – | Cn1ccnc1CN(CCCNc1ccnc2cc(Cl)ccc12)Cc1ccccc1 [SJ000520431]
48 | 30.1342 | – | Clc1ccc2c(NCCCNCc3cc4ccccc4s3)ccnc2c1 [SJ000521032]

Row | percent inhibition (TR-FRET) [1] | percent inhibition (TR-FRET) [2] | Compound
49 | – | -6.567 | Cc1ccc(S(=O)(=O)c2cnc3ccccc3c2N2CCN(c3ccccc3)CC2)cc1 [SJ000117047]
50 | 6.077 | – | Clc1ccc2c(NCCCNCc3ccncc3)ccnc2c1 [SJ000523049]
51 | 0.2567 | – | CCCN(CCCNc1c2ccc(Cl)cc2nc2ccc(OC)cc12)Cc1cccnc1Br [SJ000522977]
52 | – | -16.9013 | Cc1ccc(S(=O)(=O)c2cnc3ccc(F)cc3c2N2CCN(c3ccccc3)CC2)cc1C [SJ000117052]
53 | – | -267.24 | CCCN(CCCNc1c2ccc(Cl)cc2nc2ccc(OC)cc12)CCCc1ccccc1 [SJ000520958]
54 | 28.5489 | – | CCCN(CCCNc1ccnc2cc(C(F)(F)F)ccc12)Cc1ccoc1 [SJ000361267]
55 | – | -11.204 | CCc1ccc(S(=O)(=O)c2cnc3ccccc3c2N2CCN(c3ccc(OC)cc3)CC2)cc1 [SJ000117074]
56 | 5.164 | – | CCCN(CCCNc1ccnc2cc(C(F)(F)F)ccc12)Cc1cccnc1Br [SJ000575180]
57 | – | -591.727 | CCCN(CCCNc1c2ccc(Cl)cc2nc2ccc(OC)cc12)CCc1ccccc1 [SJ000520962]
58 | 19.4021 | – | CCCN(CCCNc1ccnc2cc(Cl)ccc12)Cc1c(F)cccc1OC [SJ000357499]
59 | – | 29.5379 | Cc1cccc(CN(CCCCNc2ccnc3cc(Cl)ccc23)Cc2ccccc2)c1 [SJ000361206]
60 | 0.9703 | – | CCCN(CCCNc1c2ccc(Cl)cc2nc2ccc(OC)cc12)Cc1ccc(F)c(F)c1 [SJ000520942]
61 | 14.6566 | – | CCCN(CCCNc1ccnc2cc(C(F)(F)F)ccc12)Cc1ccc(OC)c(OC)c1 [SJ000523079]
62 | – | -132.977 | COc1ccc2ncc(S(=O)(=O)c3ccccc3)c(N3CCN(c4ccccc4)CC3)c2c1 [SJ000083974]
63 | 22.7376 | – | CCCN(CCCNc1ccnc2cc(Cl)ccc12)Cc1ccc(OC(F)(F)F)cc1 [SJ000522999]
64 | – | -241.81 | COc1ccc2ncc(S(=O)(=O)c3ccccc3)c(N3CCN(c4cccc(C)c4C)CC3)c2c1 [SJ000117082]
65 | – | -398.22 | COc1ccc2nc3cc(Cl)ccc3c(NCCCNCc3ccc(F)cc3)c2c1 [SJ000523035]
66 | – | -6.103 | CCOC(=O)c1cnc2c(CC)cccc2c1NCCN1CCOCC1 [SJ000279714]
67 | – | -244.583 | CCCN(CCCNc1c2ccc(Cl)cc2nc2ccc(OC)cc12)Cc1cccc(OC)c1 [SJ000520961]
68 | – | 6.02 | COc1ccc2ncc(S(=O)(=O)c3ccc(C)cc3)c(N3CCN(c4ccccc4F)CC3)c2c1 [SJ000117076]
69 | 22.2507 | – | CCCCCCNCCCNc1ccnc2cc(Cl)ccc12 [SJ000361120]
70 | – | -15.3715 | COc1ccccc1N1CCN(c2c(S(=O)(=O)c3ccc(Cl)cc3)cnc3ccc(C)cc23)CC1 [SJ000117070]
